Values quoted from earlier work in patent US20050175694A1, “Long acting compositions comprising zidovudine and lamivudine” (priority 2002, published 2005).

Details: in vivo

| Compound | serum half-life | oral bioavailability |
| --- | --- | --- |
| Cc1cn([C@H]2C[C@H](N=[N+]=[N-])[C@@H](CO)O2)c(=O)[nH]c1=O [zidovudine] | 1.1 h | 60% |
| Nc1ccn([C@@H]2CS[C@H](CO)O2)c(=O)n1 [lamivudine] | – | 86% |
